Experimental data: patent US9468692B2, “Labeled molecular imaging agents and methods of use” (GENERAL ELECTRIC COMPANY, priority 2014, dated 2016)

Molecular target: T1, cystine/glutamate transporter (Homo sapiens, UniProt Q9UPY5)
T1 construct: endogenous in cells; host or cells: SKOV3 cells treated with 100 uM DEM (the paragraph also says 'DEM treated EL4 cells')
T1 sequence (Q9UPY5 1-501): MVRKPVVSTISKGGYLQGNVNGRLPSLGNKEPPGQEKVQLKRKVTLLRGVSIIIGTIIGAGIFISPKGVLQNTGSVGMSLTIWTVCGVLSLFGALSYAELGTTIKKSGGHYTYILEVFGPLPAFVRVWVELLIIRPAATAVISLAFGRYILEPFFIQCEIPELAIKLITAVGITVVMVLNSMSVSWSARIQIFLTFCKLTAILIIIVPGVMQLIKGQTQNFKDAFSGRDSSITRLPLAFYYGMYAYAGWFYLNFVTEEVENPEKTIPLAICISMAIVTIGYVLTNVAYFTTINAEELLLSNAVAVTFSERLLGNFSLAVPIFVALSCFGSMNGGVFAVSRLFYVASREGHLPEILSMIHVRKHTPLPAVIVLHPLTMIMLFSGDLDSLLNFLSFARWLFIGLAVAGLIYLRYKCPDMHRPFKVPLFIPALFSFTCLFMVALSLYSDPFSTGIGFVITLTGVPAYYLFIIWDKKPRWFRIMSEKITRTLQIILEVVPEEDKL
T1 sequence (P08195 2-529 partner): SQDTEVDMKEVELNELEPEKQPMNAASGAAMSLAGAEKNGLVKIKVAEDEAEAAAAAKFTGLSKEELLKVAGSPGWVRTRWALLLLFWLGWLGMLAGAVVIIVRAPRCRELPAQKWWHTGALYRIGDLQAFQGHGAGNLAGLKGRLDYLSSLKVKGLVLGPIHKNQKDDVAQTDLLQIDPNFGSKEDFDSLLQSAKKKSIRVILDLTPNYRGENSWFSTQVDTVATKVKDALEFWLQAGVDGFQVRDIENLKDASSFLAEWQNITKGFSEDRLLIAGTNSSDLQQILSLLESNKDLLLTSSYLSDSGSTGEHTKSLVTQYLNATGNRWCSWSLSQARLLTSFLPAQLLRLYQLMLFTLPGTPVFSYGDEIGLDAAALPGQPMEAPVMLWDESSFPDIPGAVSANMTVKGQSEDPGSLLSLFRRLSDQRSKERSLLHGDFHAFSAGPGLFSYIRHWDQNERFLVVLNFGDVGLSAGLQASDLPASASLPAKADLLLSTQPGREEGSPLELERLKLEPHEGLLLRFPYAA
Experiment: Inhibition of 3H-L-Glu uptake in DEM treated cells
Format: cell-based
Conditions: SK-OV-3, 0.5 h; 1 mM agent; SKOV3 cells treated with 100 μM DEM overnight; 30 minutes uptake at room temperature; triplicate; lower = inhibition of transporter; read-out: % of control 3H-Glu uptake
Procedure: Also provided are measurements of inhibition response of ^3H-L-GLU (control) uptake in DEM treated EL4 cells. As such 96 well plate were seeded with 100,000 SKOV3 cells/well in complete growth media (McCoy's+10% Fetal Bovine Serum(FBS)) and incubated overnight at 37° C. The media was changed to 100 μM DEM and again incubated overnight at 37° C. Wash 1× with Hank's Balanced Salt Solution (HBSS) Room Temperature and assayed […] of each agent (Table 2) in triplicate by incubating for 30 minutes (uptake) at room temperature. It was then washed twice with HBSS and 200 μl MicroScint20 added for counting. The protocol used 200 μCi ^3H-Glu per well. The mix and agent and ^3H-Glu provided a final concentration of 200 μCi and 1 mM agent. […] As such lower response is indicative of inhibition of the transporter. As such numbers below approximately 30% is equivalent to 70% inhibition and are considered good candidates for pharmaceutical agents.

| remaining activity at 1000 µM | Structure (SMILES) |
| --- | --- |
| 118% | CC(=O)N(CCC[C@H](N)C(=O)O)CCC(=O)O [Structure a] |
| 95.7% | CC(=O)N(CCC[C@H](N)C(=O)O)CC(=O)O [Structure b] |
| 36% | N[C@@H](CCCN(CCC(=O)O)C(=O)c1ccccc1)C(=O)O [Structure d] |
| 102% | CCCC(=O)N(CCCC[C@H](N)C(=O)O)CC(=O)O [Structure e] |
| 37.2% | N[C@@H](CCCN(CC(=O)O)C(=O)c1ccccc1)C(=O)O [Structure f] |
| 17.3% | CCOc1ccc(C(=O)N(CCC[C@H](N)C(=O)O)CC(=O)O)cc1 [Structure i] |
| 43.3% | N[C@@H](CCCN(CC(=O)O)C(=O)Cc1ccccc1)C(=O)O [Structure j] |
| 12.3% | N[C@@H](CCCN(CC(=O)O)C(=O)CCc1ccccc1)C(=O)O [Structure n] |
| 12.4% | N[C@@H](CCCN(CC(=O)O)C(=O)c1cccc2ccccc12)C(=O)O [Structure p] |
| 16.4% | N[C@@H](CCCN(CC(=O)O)C(=O)OCc1ccccc1)C(=O)O [Structure r] |
| 22.4% | N[C@@H](CCCN(CC(=O)O)C(=O)c1ccc(O)cc1)C(=O)O [Structure s] |
| 10.6% | N[C@@H](CCCN(CCC(=O)O)C(=O)c1ccc(OCCF)cc1)C(=O)O [Structure y] |

Continued, compound first:

| Structure (SMILES) | remaining activity at 1000 µM |
| --- | --- |
| CC(=O)N(CCCC[C@H](N)C(=O)O)CCC(=O)O [Structure c] | 102% |
| CCc1ccc(C(=O)N(CCC[C@H](N)C(=O)O)CC(=O)O)cc1 [Structure g] | 11.2% |
| CCOc1cccc(C(=O)N(CCC[C@H](N)C(=O)O)CC(=O)O)c1 [Structure h] | 39.8% |
| CCOc1ccc(C(=O)N(CCC[C@H](N)C(=O)O)CCC(=O)O)cc1 [Structure k] | 11.6% |
| N[C@@H](CCCN(CCC(=O)O)C(=O)Cc1ccccc1)C(=O)O [Structure l] | 54.2% |
| Cc1ccc(S(=O)(=O)N(CCC[C@H](N)C(=O)O)CC(=O)O)cc1 [Structure q] | 13.4% |
| N[C@@H](CCCN(CCC(=O)O)C(=O)c1ccc(O)cc1)C(=O)O [Structure t] | 45.4% |
| N[C@@H](CCCN(CCC(=O)O)C(=O)c1ccc(OCc2ccccc2)cc1)C(=O)O [Structure u] | 12.7% |
| CCC(C(=O)O)N(CCC[C@H](N)C(=O)O)C(=O)c1ccccc1 (stereo partly shown) [Structure w] | 26.1% |
| N[C@@H](CCCN(CC(=O)O)C(=O)c1ccc(OCCF)cc1)C(=O)O [Structure x] | 13.3% |
